According to US10023570B2 (Array BioPharma, Inc., priority 2015, dated 2018):
Counter-ions that a name gives are not always drawn.

Molecular target: human KDR protein in HEK-293 cells (Homo sapiens (Human), UniProt P35968)
Assay: KDR Cell Assay (phospho-KDR in HEK-293 cells expressing inducible KDR)
Assay type: cell-based
Settings: pKDR Cell HEK 10% FBS IC50, HEK-293 cells expressing inducible KDR, VEGF stimulated
Method in brief: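 HEK-293 cells with inducible human KDR were treated with compound for 1 h in DMEM (0.25% DMSO final), then lysed. Phospho-KDR was quantified by Meso Scale immunoassay, expressed as percent of control, and IC50 taken where a 4-parameter logistic fit crossed 50 POC.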

human KDR protein in HEK-293 cells, sequence (P35968 20-1356): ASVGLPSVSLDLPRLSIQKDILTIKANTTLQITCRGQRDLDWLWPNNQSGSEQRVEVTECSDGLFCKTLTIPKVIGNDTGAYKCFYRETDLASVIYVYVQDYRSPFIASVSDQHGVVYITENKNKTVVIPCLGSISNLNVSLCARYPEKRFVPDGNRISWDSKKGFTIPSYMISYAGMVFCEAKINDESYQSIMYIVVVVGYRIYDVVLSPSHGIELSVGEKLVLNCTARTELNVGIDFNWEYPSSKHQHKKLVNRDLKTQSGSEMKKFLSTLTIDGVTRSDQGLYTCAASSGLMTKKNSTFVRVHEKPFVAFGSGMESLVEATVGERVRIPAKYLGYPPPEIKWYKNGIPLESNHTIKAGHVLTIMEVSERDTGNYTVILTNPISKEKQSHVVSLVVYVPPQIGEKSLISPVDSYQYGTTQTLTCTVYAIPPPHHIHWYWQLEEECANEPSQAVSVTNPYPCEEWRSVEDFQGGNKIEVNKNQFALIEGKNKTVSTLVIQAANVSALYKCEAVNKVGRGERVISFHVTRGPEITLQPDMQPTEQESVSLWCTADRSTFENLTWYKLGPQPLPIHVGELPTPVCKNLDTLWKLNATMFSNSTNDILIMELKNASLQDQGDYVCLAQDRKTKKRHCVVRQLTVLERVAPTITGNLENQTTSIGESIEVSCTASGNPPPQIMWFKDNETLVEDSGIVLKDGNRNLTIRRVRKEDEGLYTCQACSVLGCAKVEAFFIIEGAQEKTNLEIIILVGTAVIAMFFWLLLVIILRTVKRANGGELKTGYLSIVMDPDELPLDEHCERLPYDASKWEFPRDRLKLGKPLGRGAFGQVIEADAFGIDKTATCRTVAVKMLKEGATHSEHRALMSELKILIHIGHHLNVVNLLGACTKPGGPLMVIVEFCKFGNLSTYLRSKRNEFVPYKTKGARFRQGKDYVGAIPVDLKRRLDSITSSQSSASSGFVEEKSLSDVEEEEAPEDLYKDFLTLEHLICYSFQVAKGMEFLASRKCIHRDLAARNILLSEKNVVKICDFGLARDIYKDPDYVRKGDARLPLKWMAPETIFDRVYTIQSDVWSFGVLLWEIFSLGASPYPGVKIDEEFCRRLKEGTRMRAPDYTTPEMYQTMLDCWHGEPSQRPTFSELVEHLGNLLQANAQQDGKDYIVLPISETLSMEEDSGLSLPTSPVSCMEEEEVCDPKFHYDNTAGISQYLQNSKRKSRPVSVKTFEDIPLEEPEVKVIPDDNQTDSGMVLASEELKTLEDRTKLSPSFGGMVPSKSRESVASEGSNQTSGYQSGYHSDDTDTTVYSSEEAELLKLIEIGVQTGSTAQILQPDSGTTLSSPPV

| Compound | IC50 |
| --- | --- |
| Cn1cc(-c2cc(-c3ccc(N4CCC5(CCNCC5)CC4)nc3)c3c(C#N)cnn3c2)cn1 [Example 539, 4-(6-(3,9-diazaspiro[5.5]undecan-3-yl)pyridin-3-yl)-6-(1-methyl-1H-pyrazol-4-yl)pyrazolo[1,5-a]pyridine-3-carbonitrile dihydrochloride] | 1640 nM |
| Cn1cc(-c2cc(-c3ccc(N4CCC(O)(C(F)(F)F)C4)nc3)c3c(C#N)cnn3c2)cn1 (stereo not drawn) [Example 531, 4-(6-(3-hydroxy-3-(trifluoromethyl)pyrrolidin-1-yl)pyridin-3-yl)-6-(1-methyl-1H-pyrazol-4-yl)pyrazolo[1,5-a]pyridine-3-carbonitrile 2,2,2-trifluoroacetate] | 690 nM |
| Cc1nn(C)cc1CN1CCN(c2ccc(-c3cc(-c4cnn(C)c4)cn4ncc(C#N)c34)cn2)CC1 [Example 440, 4-(6-(4-((1,3-dimethyl-1H-pyrazol-4-yl)methyl)piperazin-1-yl)pyridine-3-yl)-6-(1-methyl-1H-pyrazol-4-yl)pyrazolo[1,5-a]pyridine-3-carbonitrile] | 1690 nM |

Now from value to compound:

| IC50 | Compound |
| --- | --- |
| 4800 nM | Cn1cc(-c2cc(-c3ccc(N4CC5(CCN(Cc6ccccc6)CC5)C4)nc3)c3c(C#N)cnn3c2)cn1 [Example 485, 4-(6-(7-benzyl-2,7-diazaspiro[3.5]nonan-2-yl)pyridin-3-yl)-6-(1-methyl-1H-pyrazol-4-yl)pyrazolo[1,5-a]pyridine-3-carbonitrile] |
| 1540 nM | Cc1nccc(CN2CCN(c3ccc(-c4cc(-c5cnn(C)c5)cn5ncc(C#N)c45)cn3)CC2)n1 [Example 467, 6-(1-methyl-1H-pyrazol-4-yl)-4-(6-(4-((2-methylpyrimidin-4-yl)methyl)piperazin-l-yl)pyridin-3-yl)pyrazolo[1,5-a]pyridine-3-carbonitrile] |
| 1830 nM | COC1CCN(C(=O)N2CCN(c3ccc(-c4cc(-c5cnn(C)c5)cn5ncc(C#N)c45)cn3)CC2)CC1 [Example 376, 4-(6-(4-(4-methoxypiperidine-1-carbonyl)piperazin-1-yl)pyridin-3-yl)-6-(1-methyl-1H-pyrazol-4-yl)pyrazolo[1,5-a]pyridine-3-carbonitrile] |
| 1630 nM | CC(C)N1CCN(c2ccc(-c3cc(-c4cnn(C)c4)cn4ncc(C#N)c34)cn2)CC1 [Example 410, 4-(6-(4-isopropylpiperazin-1-yl)pyridin-3-yl)-6-(1-methyl-1H-pyrazol-4-yl)pyrazolo[1,5-a]pyridine-3-carbonitrile] |
| 2120 nM | CCC(CC)C(=O)N1CC2(CCN(c3ccc(-c4cc(-c5cnn(C)c5)cn5ncc(C#N)c45)cn3)CC2)C1 [Example 496, 4-(6-(2-(2-ethylbutanoyl)-2,7-diazaspiro[3.5]nonan-7-yl)pyridin-3-yl)-6-(1-methyl-1H-pyrazol-4-yl)pyrazolo[1,5-a]pyridine-3-carbonitrile] |

Same assay, conditions: pKDR Cell HEK 10% FBS IC50, HEK-293 cells expressing inducible KDR, VEGF stimulated, 10% FBS

| Compound | IC50 |
| --- | --- |
| Cn1cc(-c2cc(-c3ccc(N4CCN(CC(=O)N5CCCC5)CC4)nc3)c3c(C#N)cnn3c2)cn1 [Example 145, 6-(1-methyl-1H-pyrazol-4-yl)-4-(6-(4-(2-oxo-2-(pyrrolidin-1-yl)ethyl)piperazin-1-yl)pyridin-3-yl)pyrazolo[1,5-a]pyridine-3-carbonitrile 2,2,2-trifluoroacetate] | 682 nM |
| CO[C@H](C(=O)N1CCN(c2ccc(-c3cc(-c4cnn(C)c4)cn4ncc(C#N)c34)cn2)CC1)c1ccccc1 [Example 84] | 1260 nM |
| Cn1cc(-c2cc(-c3ccc(N4CCC(NC(=O)[C@H]5CCCO5)CC4)nc3)c3c(C#N)cnn3c2)cn1 [Example 178, (R)—N-(1-(5-(3-cyano-6-(1-methyl-1H-pyrazol-4-yl)pyrazolo[1,5-a]pyridin-4-yl)pyridin-2-yl)piperidin-4-yl)tetrahydrofuran-2-carboxamide] | 426 nM |
| CC(=O)N1CC2(CCN(c3ccc(-c4cc(-c5cnn(C)c5)cn5ncc(C#N)c45)cn3)CC2)C1 [Example 220, 4-(6-(2-acetyl-2,7-diazaspiro[3.5]nonan-7-yl)pyridin-3-yl)-6-(1-methyl-1H-pyrazol-4-yl)pyrazolo[1,5-a]pyridine-3-carbonitrile] | 617 nM |
| Cn1cc(-c2cc(-c3ccc(N4CCN([C@@H]5CCCC[C@H]5O)CC4)nc3)c3c(C#N)cnn3c2)cn1 [Example 155, 4-(6-(4-((1r,2r)-2-hydroxycyclohexyl)piperazin-1-yl)pyridin-3-yl)-6-(1-methyl-1H-pyrazol-4-yl)pyrazolo[1,5-a]pyridine-3-carbonitrile] | 979 nM |
| CO[C@@H](C(=O)N1CCN(c2ncc(-c3cc(-c4cnn(C)c4)cn4ncc(C#N)c34)cn2)CC1)c1ccccc1 [Example 284, (R)-4-(2-(4-(2-methoxy-2-phenylacetyl)piperazin-1-yl)pyrimidin-5-yl)-6-(1-methyl-1H-pyrazol-4-yl)pyrazolo[1,5-a]pyridine-3-carbonitrile] | 663 nM |
| Cn1cc(-c2cc(-c3ccc(N4[C@@H]5CC[C@H]4C[C@@H](NC(=O)OC(C)(C)C)C5)nc3)c3c(C#N)cnn3c2)cn1 [Example 194, tert-butyl ((1R,3r,5S)-8-(5-(3-cyano-6-(1-methyl-1H-pyrazol-4-yl)pyrazolo[1,5-a]pyridin-4-yl)pyridin-2-yl)-8-azabicyclo[3.2.1]octan-3-yl)carbamate] | 242 nM |
| Cn1cc(-c2cc(-c3ccc(N4CCN(C(=O)N5C6CCC5CC6)CC4)nc3)c3c(C#N)cnn3c2)cn1 [Example 95, 4-(6-(4-(7-azabicyclo[2.2.1]heptane-7-carbonyl)piperazin-1-yl)pyridin-3-yl)-6-(1-methyl-1H-pyrazol-4-yl)pyrazolo[1,5-a]pyridine-3-carbonitrile] | 1310 nM |
| Cn1cc(-c2cc(-c3ccc(N4CCN([C@@H]5CCC[C@H]5O)CC4)nc3)c3c(C#N)cnn3c2)cn1 [Example 163, 4-(6-(4-((1r,2r)-2-hydroxycyclopentyl)piperazin-1-yl)pyridin-3-yl)-6-(1-methyl-1H-pyrazol-4-yl)pyrazolo[1,5-a]pyridine-3-carbonitrile] | 991 nM |
| Cn1cc(-c2cc(-c3ccc(N4[C@@H]5CC[C@H]4C[C@H](NC(=O)OC(C)(C)C)C5)nc3)c3c(C#N)cnn3c2)cn1 [Example 192, tert-butyl ((1R,3s,5S)-8-(5-(3-cyano-6-(1-methyl-1H-pyrazol-4-yl)pyrazolo[1,5-a]pyridin-4-yl)pyridin-2-yl)-8-azabicyclo[3.2.1]octan-3-yl)carbamate] | 932 nM |
| Cn1cc(-c2cc(-c3ccc(N4CC5(CCN(C(=O)OC(C)(C)C)CC5)C4)nc3)c3c(C#N)cnn3c2)cn1 [Example 223, tert-butyl 2-(5-(3-cyano-6-(1-methyl-1H-pyrazol-4-yl)pyrazolo[1,5-a]pyridin-4-yl)pyridin-2-yl)-2,7-diazaspiro[3.5]nonane-7-carboxylate] | 1550 nM |

Further lines, results first:

| IC50 | Compound |
| --- | --- |
| 1490 nM | C[C@@H](O)Cn1cc(-c2cc(-c3ccc(N4CCN(C(=O)CC(C)(C)C)CC4)cc3)c3c(C#N)cnn3c2)cn1 [Example 305, (R)-4-(4-(4-(3,3-dimethylbutanoyl)piperazin-1-yl)phenyl)-6-(1-(2-hydroxypropyl)-1H-pyrazol-4-yl)pyrazolo[1,5-a]pyridine-3-carbonitrile] |
| 532 nM | Cn1cc(-c2cc(-c3ccc(N4CCN(C(=O)CO)CC4)cc3)c3c(C#N)cnn3c2)cn1 [Example 293, 4-(4-(4-(2-hydroxyacetyl)piperazin-1-yl)phenyl)-6-(1-methyl-1H-pyrazol-4-yl)pyrazolo[1,5-a]pyridine-3-carbonitrile hydrochloride] |
